Columns and labels:
AMARE (redroot pigweed) = assay: Pre-emergence herbicidal activity, warm season; format: in vivo, Amaranthus retroflexus; settings: GR80 = lowest tested rate (300, 100, 30, 10 g/ha) with 80% or greater inhibition; approx. 14 days after treating; 30/21° C.
In short: (§1)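 GR80 values derive from percent inhibition relative to untreated plants, read roughly 14 days after sowing and pre-emergence soil-surface treatment (compound in 50:50 acetone/water; rates typically 10, 30, 100, 300 g/ha). Warm-season weeds grew at 30/21° C day/night, cool-season ones at 18/13° C; an asterisk marks activity without reaching 80% at the highest rate.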

[1] = test system: CHEAL (common lambsquarters); assay: Pre-emergence herbicidal activity, warm season; format: in vivo, Chenopodium album; settings: GR80 = lowest tested rate (300, 100, 30, 10 g/ha) with 80% or greater inhibition; approx. 14 days after treating; 30/21° C.
In short: as §1

CONAR (field bindweed) = assay: Pre-emergence herbicidal activity, warm season; format: in vivo, Convolvulus arvensis; settings: GR80 = lowest tested rate (300, 100, 30, 10 g/ha) with 80% or greater inhibition; approx. 14 days after treating; 30/21° C.
In short: as §1

POROL (common purslane) = assay: Pre-emergence herbicidal activity, warm season; format: in vivo, Portulaca oleracea; settings: GR80 = lowest tested rate (300, 100, 30, 10 g/ha) with 80% or greater inhibition; approx. 14 days after treating; 30/21° C.
In short: as §1

[2] = test system: CIRAR (canada thistle (seedling)); assay: Pre-emergence herbicidal activity, warm season; format: in vivo, Cirsium arvense; settings: GR80 = lowest tested rate (300, 100, 30, 10 g/ha) with 80% or greater inhibition; approx. 14 days after treating; 30/21° C.
In short: as §1

[3] = test system: PANMI (wild proso millet); assay: Pre-emergence herbicidal activity, warm season; format: in vivo, Panicum miliaceum; settings: GR80 = lowest tested rate (300, 100, 30, 10 g/ha) with 80% or greater inhibition; approx. 14 days after treating; 30/21° C.
In short: as §1

[4] = test system: SORHA (johnsongrass (seedling)); assay: Pre-emergence herbicidal activity, warm season; format: in vivo, Sorghum halepense; settings: GR80 = lowest tested rate (300, 100, 30, 10 g/ha) with 80% or greater inhibition; approx. 14 days after treating; 30/21° C.
In short: (§2)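 Activity is expressed as the rate giving 80% inhibition, with 300, 100, 30 and 10 g/ha typically tested. An asterisk marks activity short of 80% at the top rate. Warm-season grasses were held at 30/21 °C; cool-season blackgrass and wild buckwheat at 18/13 °C; scoring at about 14 days.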

SETFA (giant foxtail) = assay: Pre-emergence herbicidal activity, warm season; format: in vivo, Setaria faberi; settings: GR80 = lowest tested rate (300, 100, 30, 10 g/ha) with 80% or greater inhibition; approx. 14 days after treating; 30/21° C.
In short: as §2

DIGSA (large crabgrass) = assay: Pre-emergence herbicidal activity, warm season; format: in vivo, Digitaria sanguinalis; settings: GR80 = lowest tested rate (300, 100, 30, 10 g/ha) with 80% or greater inhibition; approx. 14 days after treating; 30/21° C.
In short: as §1

[5] = test system: GALAP (catchweed bedstraw); assay: Pre-emergence herbicidal activity, cool season; format: in vivo, Galium aparine; settings: lowest tested rate with 80% or greater inhibition; rates 300, 100, 30, 10 g/ha; about 14 days
In short: as §1

POLCO (wild buckwheat) = assay: Pre-emergence herbicidal activity, cool season; format: in vivo, Polygonum convolvulus; settings: lowest tested rate with 80% or greater inhibition; rates 300, 100, 30, 10 g/ha; about 14 days
In short: as §1

SINAR (wild mustard) = assay: Pre-emergence herbicidal activity, cool season; format: in vivo, Sinapis arvensis; settings: lowest tested rate with 80% or greater inhibition; rates 300, 100, 30, 10 g/ha; about 14 days
In short: as §1

[6] = test system: VERPE (creeping speedwell); assay: Pre-emergence herbicidal activity, cool season; format: in vivo, Veronica persicaria; settings: lowest tested rate with 80% or greater inhibition; rates 300, 100, 30, 10 g/ha; about 14 days
In short: as §1

SASKR (russian thistle) = assay: Pre-emergence herbicidal activity, cool season; format: in vivo, Salsola kali; settings: lowest tested rate with 80% or greater inhibition; rates 300, 100, 30, 10 g/ha; about 14 days
In short: as §1

STEME (common chickweed) = assay: Pre-emergence herbicidal activity, cool season; format: in vivo, Stellaria media; settings: lowest tested rate with 80% or greater inhibition; rates 300, 100, 30, 10 g/ha; about 14 days
In short: as §1

[7] = test system: LAMPU (purple deadnettle); assay: Pre-emergence herbicidal activity, cool season; format: in vivo, Lamium purpureum; settings: lowest tested rate with 80% or greater inhibition; rates 300, 100, 30, 10 g/ha; about 14 days
In short: as §1

ALOMY (blackgrass) = assay: Pre-emergence herbicidal activity, cool season; format: in vivo, Alopecurus myosuroides; settings: GR80 = lowest tested rate (300, 100, 30, 10 g/ha) with 80% or greater inhibition; approx. 14 days after treating; 18/13° C.
In short: as §1

SETVI (green foxtail) = assay: Pre-emergence herbicidal activity, cool season; format: in vivo, Setaria viridis; settings: GR80 = lowest tested rate (300, 100, 30, 10 g/ha) with 80% or greater inhibition; approx. 14 days after treating; 18/13° C.
In short: as §1

LOLMG (annual ryegrass) = assay: Pre-emergence herbicidal activity, cool season; format: in vivo, Lolium multiflorum; settings: GR80 = lowest tested rate (300, 100, 30, 10 g/ha) with 80% or greater inhibition; approx. 14 days after treating; 18/13° C.
In short: as §1

[8] = test system: AEGCY (jointed goatgrass); assay: Pre-emergence herbicidal activity, cool season; format: in vivo, Aegilops cylindrica; settings: GR80 = lowest tested rate (300, 100, 30, 10 g/ha) with 80% or greater inhibition; approx. 14 days after treating; 18/13° C.
Protocol: (§3) Tables 5 to 8 summarize results of tests conducted as described below to determine the pre-emergence herbicidal activity, in the form of a GR80 value, of illustrative compounds of this invention. […] Compounds of the invention were typically applied at rates of 300, 100, 30, and 10 g/ha. Where herbicidal activity was evident but 80% inhibition was not achieved at the highest rate tested, an asterisk (*) is shown in the following tables.
(§4) The pre-emergence tests were conducted by the following procedure. Topsoil was sieved to pass through a 1.27 cm screen. Fertilizer was added to the topsoil and the mixture was then sterilized by heating. The topsoil mixture was placed in a pot and compacted to a depth of 1.0 to 1.25 cm from the top of the pot. Seeds of each of several monocotyledonous and dicotyledonous annual plant species were placed on top of the soil. Additional soil was subsequently placed over the seeds to level-fill the pot. A known amount of each test compound dissolved or suspended in an appropriate organic solvent was diluted with a 50:50 mix of acetone and water and applied to the surface of the soil. After treatment the plants were placed in a greenhouse where they received 0.64 cm of overhead irrigation. All subsequent watering consisted of a light overhead mist and/or subirrigation as needed for germination and growth. Tables 5 and 6 below relate to warm season plant species which were placed after pre-emergence treatment in a greenhouse with a 30/21° C. day/night temperature regime. Tables 7 and 8 below relates to cool season plant species placed after pre-emergence treatment in a greenhouse or growth chamber with an 18/13° C. day/night temperature regime.
(§5) Approximately 14 days after planting and treating, the plants were observed and herbicidal efficacy recorded as percent inhibition by comparison with untreated plants.
(§6) The plant species usually regarded as weeds which were utilized in the tests are identified in the tables below according to the following legend, in which “d” indicates a dicotyledonous species and “m” a monocotyledonous species. All monocotyledonous species included in the tests herein are grasses.

[9] = test system: AGSST (creeping bentgrass); assay: Pre-emergence herbicidal activity, cool season; format: in vivo, Agrostis stolonifera; settings: GR80 = lowest tested rate (300, 100, 30, 10 g/ha) with 80% or greater inhibition; approx. 14 days after treating; 18/13° C.
In short: as §1

[10] = test system: BRAPP (broadleaf signalgrass); assay: Pre-emergence herbicidal activity, warm season; format: in vivo, Brachiaria platyphylla; settings: GR80 = lowest tested rate (300, 100, 30, 10 g/ha) with 80% or greater inhibition; approx. 14 days after treating; 30/21° C.
In short: as §2

AVEFA (wild oat) = assay: Pre-emergence herbicidal activity, cool season; format: in vivo, Avena fatua; settings: GR80 = lowest tested rate (300, 100, 30, 10 g/ha) with 80% or greater inhibition; approx. 14 days after treating; 18/13° C.
Protocol: as §3, §4, §5, §6

SOLNI (black nightshade) = assay: Pre-emergence herbicidal activity, warm season; format: in vivo, Solanum nigrum; settings: GR80 = lowest tested rate (300, 100, 30, 10 g/ha) with 80% or greater inhibition; approx. 14 days after treating; 30/21° C.
In short: as §1

[11] = test system: AGRRE (quackgrass (seedling)); assay: Pre-emergence herbicidal activity, cool season; format: in vivo, Elymus repens; settings: GR80 = lowest tested rate (300, 100, 30, 10 g/ha) with 80% or greater inhibition; approx. 14 days after treating; 18/13° C.
Protocol: as §3, §4, §5, §6

| SMILES | Pre-emergence activity (GR80) POROL (POROL (common purslane)) [g/ha] | Pre-emergence activity (GR80) CIRAR [2] [g/ha] | Pre-emergence activity (GR80) PANMI [3] [g/ha] | Pre-emergence activity (GR80) SETFA (SETFA (giant foxtail)) [g/ha] | Pre-emergence activity (GR80) DIGSA (DIGSA (large crabgrass)) [g/ha] | Pre-emergence activity GR80, GALAP [5] [g/ha] | Pre-emergence activity GR80, POLCO (POLCO (wild buckwheat)) [g/ha] | Pre-emergence activity GR80, SINAR (SINAR (wild mustard)) [g/ha] | Pre-emergence activity GR80, VERPE [6] | Pre-emergence activity GR80, SASKR (SASKR (russian thistle)) | Pre-emergence activity GR80, STEME (STEME (common chickweed)) [g/ha] | Pre-emergence activity GR80, LAMPU [7] [g/ha] | Pre-emergence activity (GR80) ALOMY (ALOMY (blackgrass)) [g/ha] | Pre-emergence activity (GR80) SETVI (SETVI (green foxtail)) [g/ha] | Pre-emergence activity (GR80) AEGCY [8] [g/ha] | Pre-emergence activity (GR80) AGSST [9] [g/ha] | Pre-emergence activity (GR80) AVEFA (AVEFA (wild oat)) [g/ha] | also measured |
| --- | --- | --- | --- | --- | --- | --- | --- | --- | --- | --- | --- | --- | --- | --- | --- | --- | --- | --- |
| O=C(N1CCCC1)n1cnc(S(=O)(=O)C(F)(F)Br)n1 [Example 23, 3-(bromodifluoromethylsulfonyl)-1-(pyrrolidinocarbonyl)-1,2,4-triazole] | 300 | 300 | 100 | 100 | 300 | 300 | 30 | 300 | [empty] | [empty] | 100 | 100 | 300 | 100 | 300 | 100 |  | Pre-emergence activity (GR80) AMARE (AMARE (redroot pigweed)): 300 g/ha; Pre-emergence activity (GR80) CHEAL [1]: 300 g/ha; Pre-emergence activity (GR80) CONAR (CONAR (field bindweed)): 300 g/ha; Pre-emergence activity (GR80) SORHA [4]: 300 g/ha; Pre-emergence activity (GR80) LOLMG (LOLMG (annual ryegrass)): 300 g/ha |
| C=CCN(C)C(=O)n1cnc(S(=O)(=O)C(F)F)n1 [Example 30] | 300 | 300 | 100 | 300 | 300 | 100 | 100 | 100 | 10 g/ha | 10 g/ha | 10 | 10 | 300 | 300 | 100 | 30 | 100 | Pre-emergence activity (GR80) BRAPP [10]: 300 g/ha |
| COCCN(C)C(=O)n1cnc(S(=O)(=O)C(F)(F)C(F)(F)Br)n1 [Example 76] | 300 |  | 100 | 300 | 300 | 100 | 300 | 10 | 30 g/ha | 30 g/ha | 300 | 100 | 300 | 100 | 300 | 100 | 300 | Pre-emergence activity (GR80) SOLNI (SOLNI (black nightshade)): 300 g/ha; Pre-emergence activity (GR80) AGRRE [11]: 100 g/ha |

Reference: US6461997B1, “Triazole sulfones having herbicidal activity” (Monsanto Technology LLC, priority 1999, dated 2002)
